Read-outs that look alike come from different tables or passages of the source. Peptide text beside a SMILES is read from it.
Assays:
PD1:PDL1 interaction = biological target: T1, PD1:PDL1 interaction (Homo sapiens, UniProt Q15116); experiment: PD1/PDL1 immunoblocking ELISA (BPS Bioscience kit cat # 72005); format: binding; conditions: for LE (ligand efficiency): LE = -RTln(EC50)/HA, HA = non-hydrogen atoms omitting the strap (RWV•••VWE)
T1 construct: purchased BPS Bioscience 72005

[1] = Variable-temperature CD melting curves (CD-melts at 228±2 nm and 202±2 nm), individual and global two-state fits; format: physicochemical; conditions: for ΔGF0: CD-melt at 228±2 nm, individual two-state Gibbs-Helmholtz fit (Origin 9.0), phosphate buffer 15 mM pH 6.5 ± MeOH; for ΔGF0 / DHm (fitted value, results from OriginPro) / Tm (fitted value, results from OriginPro): 0-95 °C; for Tm / Hairpin %-fold 291K / Hairpin %-fold 310K: Table S5, individual fit; for Tm: 228±2 nm; for -TΔSF0 / ΔCpF0 / ΔHF0 / ΔHm: as E16; for VT-CD %-fold: folded fraction (χF) at 25 °C from CD-melts, (R) regular / (B) bulged fold; for VT-CD %-fold / VT-CD Tm (°C): phosphate buffer 15 mM pH 6.5, up to 20% MeOH; for VT-CD Tm (°C): melting temperature from CD-melts; for DHm (fitted value, results from OriginPro) / Tm (fitted value, results from OriginPro): two-state fit of the CD melt θ - θcoil(95) vs T, l 0.1 cm, peptide c 3.2e-5 to 5e-5 M
Outline: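 Far-UV CD melts (0 to 95 °C) at 15-120 µM peptide in 15 mM phosphate buffer, concentration set by Trp/Tyr absorbance at 280 nm; CD-exciton intensity taken as %-folding probe. Melting curves fitted individually and globally to a two-state model.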

[2] = ELISA, mean of three independent experiments, read-out: EC50 Value
[3] = variable-temperature CD melt 0-95 °C, θ - θcoil(95) vs T, l = 0.1 cm, individual two-state fit
[4] = xlsx sheet of the peptide, individual fit of CD-melt

T1 sequence (Q15116 25-167 limits assumed): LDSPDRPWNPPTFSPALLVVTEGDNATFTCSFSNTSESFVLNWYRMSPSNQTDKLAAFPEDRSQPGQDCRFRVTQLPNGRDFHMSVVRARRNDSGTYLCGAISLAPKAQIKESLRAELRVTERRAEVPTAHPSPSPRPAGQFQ

Row | Structure (SMILES) | EC50 (PD1:PDL1 interaction; [2]) [µM] | LE (ligand efficiency) (PD1:PDL1 interaction) | ΔGF0 [1] [kcal/mol] | Tm [1] [oC] | Hairpin %-fold 291K ([1]; 291 K) [%] | Hairpin %-fold 310K [1] [%] | -TΔSF0 [1] [kcal/mol] | ΔCpF0 [1] [cal.deg-1.mol-1] | ΔHF0 [1] [kcal/mol] | ΔHm [1] [kcal/mol] | VT-CD %-fold [1] | VT-CD Tm (°C) [1] [°C] | DHm (fitted value, results from OriginPro) [1] [kcal/mol] | Tm (fitted value, results from OriginPro) [1] [K] | further results
1 | CC(C)[C@H](NC(=O)CNC(=O)[C@H](CO)NC(=O)[C@H](CO)NC(=O)[C@H](CC(=O)O)NC(=O)[C@@H]1CCCN1C(=O)[C@H](CO)NC(=O)[C@H](Cc1c[nH]c2ccccc12)NC(=O)[C@@H](NC(=O)[C@H](Cc1c[nH]c2ccccc12)NC(=O)[C@@H](N)CCCNC(=N)N)C(C)C)C(=O)N[C@@H](C)C(=O)N[C@@H](Cc1ccc(O)cc1)C(=O)N[C@@H](Cc1c[nH]c2ccccc12)C(=O)N[C@H](C(=O)N[C@@H](Cc1c[nH]c2ccccc12)C(=O)N[C@@H](CCC(=O)O)C(=O)O)C(C)C [1e] (H-RWVWSPDSSGVAYWVWE-OH) | 0.27 | 0.10 | -0.90 ± 0.01 | 58.3 | 85 ± 1 | 74 ± 1 | 5.60 ± 0.06 | -148 ± 4 | -6.50 ± 0.06 | -11.5 ± 0.05 | 85% (R) | 58 | -11.4534 | 331.438 | 
2 | CSCC[C@H](NC(=O)[C@H](CC(=O)O)NC(=O)CNC(=O)[C@H](CCCNC(=N)N)NC(=O)[C@H](Cc1ccc(O)cc1)NC(=O)[C@H](CC(=O)O)NC(=O)[C@H](CCCNC(=N)N)NC(=O)[C@H](CCCNC(=N)N)NC(=O)[C@H](CCCCN)NC(=O)[C@@H](NC(=O)[C@H](Cc1c[nH]c2ccccc12)NC(=O)[C@@H](N)CCCNC(=N)N)C(C)C)C(=O)NCC(=O)N[C@@H](Cc1ccccc1)C(=O)N[C@@H](CC(=O)O)C(=O)N[C@@H](Cc1ccc(O)cc1)C(=O)N[C@@H](Cc1c[nH]c2ccccc12)C(=O)N[C@H](C(=O)N[C@@H](Cc1c[nH]c2ccccc12)C(=O)N[C@@H](CCC(=O)O)C(=O)O)C(C)C [2f] (H-RWVKRRDYRGDMGFDYWVWE-OH) | 0.862 | 0.06 | -1.33 ± 0.01 | 65.4 | 92 ± 1 | 85 ± 1 | 5.76 ± 0.07 | -208 ±2 | -7.09 ± 0.07 | -15.5 ± 0.04 | 92% (B) |  |  |  | %fold 291K ([1]; fraction folded at 291 K from two-state fit of CD-melt): 92%; DHm (fitted value, OriginPro two-state fit of CD-melt) [1, 3]: -15.5228 kcal/mol; Tm (fitted value, OriginPro two-state fit of CD-melt) [1, 3]: 338.533 K
3 | CSCC[C@H](NC(=O)CNC(=O)[C@H](CCC(=O)O)NC(=O)[C@H](CCCNC(=N)N)NC(=O)[C@H](C)NC(=O)[C@@H](NC(=O)[C@H](Cc1c[nH]c2ccccc12)NC(=O)[C@@H](N)CCCNC(=N)N)C(C)C)C(=O)N[C@@H](CC(N)=O)C(=O)N[C@H](C(=O)N[C@@H](CC(=O)O)C(=O)N[C@@H](Cc1c[nH]c2ccccc12)C(=O)N[C@@H](Cc1ccc(O)cc1)C(=O)N[C@@H](Cc1ccccc1)C(=O)N[C@@H](CC(=O)O)C(=O)N[C@@H](Cc1ccc(O)cc1)C(=O)N[C@@H](Cc1c[nH]c2ccccc12)C(=O)N[C@@H](Cc1c[nH]cn1)C(=O)N[C@@H](Cc1c[nH]c2ccccc12)C(=O)N[C@@H](CCC(=O)O)C(=O)O)[C@@H](C)O [2n] (H-RWVAREGMNTDWYFDYWHWE-OH) |  | 0.07 | 0.46 ± 0.01 | -5.1 | 36 ± 2 | 23 ± 2 | 6.11 ± 0.19 | -97 ± 14 | -5.65 ± 0.18 | -2.75 ± 0.80 | 36% (B) | <0 | -2.75455 | 268.058 | χF (291 K) 228 nm Glob. ([1]; global fit, 228 nm, 291 K): 0%; χF (291 K) 228 nm Indiv. ([1]; individual fit, 228 nm, 291 K): 36%; Tm 228 nm Indiv. ([1]; individual fit, exciton band 228 nm): -5.1 oC
4 | CSCC[C@H](NC(=O)[C@H](CC(=O)O)NC(=O)[C@H](Cc1ccccc1)NC(=O)[C@H](CCCNC(=N)N)NC(=O)[C@H](Cc1ccc(O)cc1)NC(=O)[C@H](CC(=O)O)NC(=O)[C@H](CCCNC(=N)N)NC(=O)[C@H](Cc1c[nH]c2ccccc12)NC(=O)[C@@H](NC(=O)[C@H](Cc1c[nH]c2ccccc12)NC(=O)[C@@H](N)CCCNC(=N)N)C(C)C)C(=O)NCC(=O)N[C@@H](Cc1ccccc1)C(=O)N[C@@H](CC(=O)O)C(=O)N[C@@H](Cc1c[nH]c2ccccc12)C(=O)N[C@H](C(=O)N[C@@H](Cc1c[nH]c2ccccc12)C(=O)N[C@@H](CCC(=O)O)C(=O)O)C(C)C [1c] (H-RWVWRDYRFDMGFDWVWE-OH) |  | 0.06 | 0.31 ± 0.01 | -2.99 | 40 ± 1 | 32 ± 1 | 3.66 ± 0.01 | -23 ± 0.4 | -3.35 ± 0.01 |  | 40% (R) | <0 |  |  | EC50 (PD1:PDL1 interaction; PD1:PDL1 inhibition EC50, ELISA, PDL1-coated plate, biotin-labeled human PD-1, 2 h rt, chemiluminescence, Hill fit, mean ± SD, n = 3, SD): 12.3 ± 1.5 µM; EC50 (PD1:PDL1 interaction; [PD1•PDL1] blocking EC50, Fig. 3B, cut-off bars of congeneric pairs (Phe/Trp vs Gly), n = 3): > 5 µM; DHm, fitted value from OriginPro [1, 4]: -2.72263 kcal/mol; Tm, fitted value from OriginPro [1, 4]: 270.158 K
5 | CC[C@H](C)[C@H](NC(=O)[C@H](CC(=O)O)NC(=O)[C@H](CC(C)C)NC(=O)[C@H](CC(=O)O)NC(=O)[C@H](CCCNC(=N)N)NC(=O)[C@H](Cc1c[nH]c2ccccc12)NC(=O)[C@@H](NC(=O)[C@H](Cc1c[nH]c2ccccc12)NC(=O)[C@@H](N)CCCNC(=N)N)C(C)C)C(=O)N[C@@H](C)C(=O)N[C@H](C(=O)N[C@H](C(=O)N[C@@H](CCCNC(=N)N)C(=O)N[C@@H](CC(=O)O)C(=O)N[C@@H](Cc1ccc(O)cc1)C(=O)N[C@@H](Cc1c[nH]c2ccccc12)C(=O)N[C@H](C(=O)N[C@@H](Cc1c[nH]c2ccccc12)C(=O)N[C@@H](CCC(=O)O)C(=O)O)C(C)C)[C@@H](C)O)[C@@H](C)O [1f] (H-RWVWRDLDIATTRDYWVWE-OH) | 3.36 | 0.06 | -0.49 ± 0.01 | 39.4 | 78 ± 1 | 53 ± 1 | 9.96 ± 0.06 | -15 ± 3 | -10.5 ± 0.06 | -10.7 ± 0.04 | 78% (R) | 39 | -10.6792 | 312.539 | 
6 | CC[C@H](C)[C@H](NC(=O)[C@H](Cc1ccc(O)cc1)NC(=O)[C@H](Cc1c[nH]c2ccccc12)NC(=O)[C@H](Cc1ccc(O)cc1)NC(=O)[C@H](CC(N)=O)NC(=O)CNC(=O)[C@H](Cc1ccc(O)cc1)NC(=O)[C@H](C)NC(=O)[C@H](CCCNC(=N)N)NC(=O)[C@H](C)NC(=O)[C@@H](NC(=O)[C@H](Cc1c[nH]c2ccccc12)NC(=O)[C@@H](N)CCCNC(=N)N)C(C)C)C(=O)N[C@@H](CC(=O)O)C(=O)N[C@H](C(=O)N[C@@H](Cc1c[nH]c2ccccc12)C(=O)N[C@@H](Cc1c[nH]cn1)C(=O)N[C@@H](Cc1c[nH]c2ccccc12)C(=O)N[C@@H](CCC(=O)O)C(=O)O)C(C)C [2q] (H-RWVARAYGNYWYIDVWHWE-OH) |  | 0.07 |  |  |  |  |  |  |  |  | β-structure |  |  |  | fold by CD signature (in words) ([1]; no hairpin exciton, no fit possible): β-sheet structure

From publication PMC11562385 (RSC Chemical Biology, 2024)
